Consider two molecules from patent publication US20160326098A1, “Pharmaceutically Active Compound for Use as Anti-inflammatory Agent” (Pax Forschung GmbH, priority 2013, published 2016).

Assay type in all cases: in vivo
For series [1], the system named is High mobility group box protein 1 (HMGB-1). The series is described as follows: Plasma high mobility group protein B1, rats with gastric injury without inflammation. Particulars: 1.11 mmol/kg, day 3, vs control group H, FIG. 22. The procedure: High mobility group box protein 1 (HMGB-1) measurements in plasma:
Blood samples were drawn into chilled polypropylene tubes containing EDTA (1 mg/ml) and were centrifuged at 1200 g for 10 min at 4° C. The plasma samples were then collected and stored at −70° C. until assay. Plasma concentration of HMGB-1 was measured by a commercially available HMGB-1 ELISA kit (Shino-Test Corporation, Kanagawa, Japan).
Further experiments regarding the effect of a compound of formula (I) and a pharmaceutical composition comprising a compound of formula (I), respectively, on gastric injury without inflammation were conducted on rats. 15 animals were randomly allocated into three groups. Group H (n=5) served as sham-operated controls. Samples of all animals were drawn on day 1 of the clinical tests. On day 2 the animals of group I (n=5) were force-fed acetylsalicylic acid (ASS) (1.11 mmol/kg body weight). Group K (n=5) was force-fed 1.11 mmol/kg body weight of the compound according to the invention. […] Fluorescence confocal endomicroscopy was performed to examine the microvasculature and morphologic changes of the mucosa of the distal colon, and full-thickness tissue samples and venous blood samples were taken to determine the biochemical changes in the colon and plasma. The effects were determined by way of measurement of body weight, blood gas analysation and biopsy. […]

For the next series, the system named is xanthine oxidase enzyme. The series is described as follows: Xanthine oxidase enzyme activity in tissue, rats with TNBS-induced colitis. Particulars: gastric and colon tissue, 1.11 mmol/kg, FIGS. 33a/33b. The procedure:
(§1) Colonic inflammation was induced by intracolonic administration of TNBS (2,4,6-trinitrobenzenesulfonic acid) (40 mg/kg in 0.25 ml of 25% aqueous ethanol) through an 8-cm-long soft plastic catheter under transient diethylether anesthesia. In the sham-operated groups, only the vehicle for TNBS was administered. The animals were deprived of food, but not water, for 12 h before the enemas.
The XOR activity was determined in the ultrafiltered, concentrated supernatant by fluorometric kinetic assay based on the conversion of pterine to isoxanthopterine in the presence (total XOR) or absence (xanthine oxidase activity) of the electron acceptor methylene blue.
(§2) The above-described clinical studies were repeated with animals having colitis which was induced as described above. […] Two days after the enema the effects of the treatment were determined by measurement of body weight, blood gas analysis and biopsy. […] Surgery was performed to allow registration of the hemodynamic parameters at 1 h intervals for 6 h (cardiac output [CO] data were measured only at the end of the experiments). […] In addition, fluorescence confocal endomicroscopy was performed to examine the microvasculature and morphologic changes of the mucosa of the distal colon, and full-thickness tissue samples and venous blood samples were taken to determine the biochemical changes in the colon and plasma.

In another series the test system is myeloperoxidase (MPO). As to the kind of experiment: Tissue myeloperoxidase activity, mice with TNBS-induced colitis. Particulars: gastric and colon tissue, 1.11 mmol/kg, one day after treatment, vs untreated colitis and ASS groups, FIGS. 13a/13b. The procedure:
as §1
Colon biopsies kept on ice were homogenized in phosphate buffer (pH 7.4) containing 50 mM Tris-HCl (Reanal, Budapest, Hungary), 0.1 mM EDTA, 0.5 mM dithiothreitol, 1 mM phenylmethylsulfonyl fluoride, 10 μg/ml soybean trypsin inhibitor, and 10 μg/ml leupeptin (Sigma Aldrich GmbH, Munich, Germany). […] The activity of myeloperoxidase (MPO) was measured on the pellet of the homogenate.
The activity of MPO as a marker of tissue leukocyte infiltration was measured on the pellet of the homogenate. […] The reaction led to the hydrogen peroxide-dependent oxidation of tetramethylbenzidine, which could be detected spectrophotometrically at 450 nm (UV-1601 spetrophotometer; Shimadzu, Kyoto, Japan). Myeloperoxidase activities were measured at 37° C.; the reaction was stopped after 5 minutes by the addition of 0.2 ml of H2SO4 (2 M), and the resulting data were referred to the protein content. […]

Another series deals with nitrite/nitrate (NOx). As to the kind of experiment: Tissue nitrite/nitrate level, mice with TNBS-induced colitis. Particulars: gastric and colon tissue, 1.11 mmol/kg, FIGS. 15a/15b. How it is done:
as §1
The levels of plasma nitrite/nitrate (NOx), stable end products of NO were measured by the Griess reaction. This assay depends on the reduction of nitrate to nitrite, which is then converted into a colored azo dye compound that is detected spectrophotometrically at 540 nm.
as §2

With `CC(=O)Oc1ccccc1C(=O)O` [ASS, acetylsalicylic acid, reference compound], in series [1], the “concentration of the high mobility group protein B1 in the plasma” value was “increased”. The “activity of xanthine oxidase enzyme” value in the series with xanthine oxidase enzyme was “only a slight decrease in activity”.

Consider `CC(=O)Oc1ccccc1C(=O)NC(CO)(CO)CO` [compound according to the invention], for which the myeloperoxidase enzyme activity entry in the series with myeloperoxidase (MPO) is listed as “decrease of activity”. The nitrite/nitrate level result in the series with nitrite/nitrate (NOx) is on record as “nitrite/nitrate levels comparable to those of healthy animals”. Further, the “concentration of the high mobility group protein B1 in the plasma” value in series [1] is “comparable with the concentration in the plasma of the animals in the control group H”. For the same molecule, the “activity of xanthine oxidase enzyme” value with xanthine oxidase enzyme is listed as “enzyme activity comparable to that of healthy animals”.
